Read-outs that look alike come from different tables or passages of the source.

The target of assay [1] is T1, Epidermal Growth Factor Receptor Kinase (EGF-R) (Homo sapiens, UniProt P00533).
T1 construct: The enzyme was obtained as a membrane extract of A431 cells; (cells); host or cells: A431 cells (membrane extract)
The experiment in a line: Inhibition of Epidermal Growth Factor Receptor Kinase (EGF-R), phosphorylation of peptide substrate RR-SRC. Format: biochemical. Particulars: A431 membrane extract; average of number of tests. Here is the method:
The % inhibition of the test compound was determined for at least three different concentrations and the IC50 value was evaluated from the dose response curve.
The CPM values were corrected for the background counts produced by ATP in the absence of the enzymatic reaction.

Another assay concerns Neu-3T3 cells. In words: Inhibition of cell growth, [3H]-thymidine incorporation, Neu-3T3. Format: cell-based. Particulars: Mus musculus, read-out: IC50, NEU-3T3. The protocol:
(§1) Representative compounds of this invention were evaluated for their ability to inhibit the growth of the cell lines described below in vitro. The inhibition is quantitated by measuring the decrease in the incorporation of radio-labeled thymidine when the cells are grown in the presence of the inhibitor. A431 and SKBR3 cell lines are obtained from American Type Culture Collection, Rockville, Md. […] NHEK cells are obtained from Clonetics (San Diego, Calif.). Cells were routinely grown in a humidified incubator in 5% CO2 in air.
(§2) Cells were seeded at 10,000 cells/well in 96 well plates in complete media and allowed to grow to log phase. […] After overnight incubation in low serum (or EGF lacking) media, the compounds to be evaluated were added and cells remained in the presence of compounds for 48 to 72 hours. Media with test compound was then removed and complete media was added back. The cells were allowed to grow for 18 hours. This is followed by incubation in [^3 H]thymidine (1mCi/ml in serum/EGF media) for 4 hours. Cells were lysed in 0.5M NaOH for at least 30 min at 37° C. and radioactivity analyzed.
(§3) The cell growth inhibition data is provided below in TABLE 3. […] The % inhibition of the compound evaluated was determined for at least three different concentrations and the IC50 value evaluated from the dose response curve.
(§4) CPM(control) is in units of counts per minute and is a number expressing the amount of [^3 H]thymidine incorporated onto the DNA when cells are grown in the absence of test compound as measured by liquid scintillation counting.

The subject of a further assay is A431 cells. In words: Inhibition of cell growth, [3H]-thymidine incorporation, A431. Format: cell-based. Conditions: Homo sapiens, A-431, read-out: IC50, A431. Here is the method:
as §1
Cells were seeded at 10,000 cells/well in 96 well plates in complete media and allowed to grow to log phase. […] After overnight incubation in low serum (or EGF lacking) media, the compounds to be evaluated were added and cells remained in the presence of compounds for 48 to 72 hours. […] Cells were lysed in 0.5M NaOH for at least 30 min at 37° C. and radioactivity analyzed.
as §3, §4

For a further assay, the system named is SKBR3 cells. The experiment in a line: Inhibition of cell growth, [3H]-thymidine incorporation, SKBR3. Format: cell-based. Particulars: Homo sapiens. Here is the method:
Representative compounds of this invention were evaluated for their ability to inhibit the growth of the cell lines described below in vitro. The inhibition is quantitated by measuring the decrease in the incorporation of radio-labeled thymidine when the cells are grown in the presence of the inhibitor. A431 and SKBR3 cell lines are obtained from American Type Culture Collection, Rockville, Md. […] NHEK cells are obtained from Clonetics (San Diego, Calif.). Cells were routinely grown in a humidified incubator in 5% CO2 in air. […] Cells were seeded at 10,000 cells/well in 96 well plates in complete media and allowed to grow to log phase. […] After overnight incubation in low serum (or EGF lacking) media, the compounds to be evaluated were added and cells remained in the presence of compounds for 48 to 72 hours. Media with test compound was then removed and complete media was added back. The cells were allowed to grow for 18 hours. This is followed by incubation in [^3 H]thymidine (1mCi/ml in serum/EGF media) for 4 hours. Cells were lysed in 0.5M NaOH for at least 30 min at 37° C. and radioactivity analyzed. The cell growth inhibition data is provided below in TABLE 3. […] The % inhibition of the compound evaluated was determined for at least three different concentrations and the IC50 value evaluated from the dose response curve. […] CPM(control) is in units of counts per minute and is a number expressing the amount of [^3 H]thymidine incorporated onto the DNA when cells are grown in the absence of test compound as measured by liquid scintillation counting.

In a further assay the test system is NHEK cells. The experiment in a line: Inhibition of cell growth, [3H]-thymidine incorporation, NHEK. Format: cell-based. Conditions: Homo sapiens, read-out: IC50, NHEK. Here is the method:
as §1, §2, §3, §4

The subject of assay [2] is human epidermoid tumors (A431). In words: In vivo inhibition of the growth of human epidermoid tumors (A431) in mice.
Experimental: BALB/c nu/nu female mice (Charles River, Wilmington, Mass.) were used in the in vivo standard pharmacological test procedures. […] When tumors attained a mass of between 100 and 150 mg, the mice were randomized into treatment groups (day zero). Mice were treated IP once a day either on days 1, 5, and 9 or on days 1 through 10 post staging with doses of either 80, 40 or 20 mg/kg/dose of the compound to be evaluated in 0.2% Klucel. Control animals received no drug. Tumor mass was determined every 7 days [(length×width^2)/2] for 28 days post staging. Relative tumor growth (Mean tumor mass on day 7, 14, 21, and 28 divided by the mean tumor mass on day zero) is determined for each treatment group. The % T/C (Tumor/Control) is determined by dividing the relative tumor growth of the treated group by the relative tumor growth of the placebo group and multiplying by 100.
Setting [3] is: SK-BR-3, 48 to 72 hours with compound, read-out: IC50, SKBR3.
The mark [4] stands for this setting: Table 4, 20 mg/kg/dose IP, days 1, 5, 9.
The mark [5] stands for this setting: Table 4, 20 mg/kg/dose IP, days 1 through 10.
Setting [6] is: Table 4, 40 mg/kg/dose IP, days 1, 5, 9.
The mark [7] stands for this setting: Table 4, 80 mg/kg/dose IP, days 1, 5, 9.
Setting [8] is: Table 5, 20 mg/kg/dose IP, days 1 through 15.
Setting [9] is: Table 6, 20 mg/kg IP, day 1 through 10.
[10] abbreviates: Table 6, 20 mg/kg IP, day 1 through 10, * p < 0.01.
Where [11] appears, read: Table 6, 80 mg/kg IP, days 1, 5, and 9.
The mark [12] stands for this setting: Table 6, 80 mg/kg IP, days 1, 5, and 9, * p < 0.01.
Setting [13] is: Table 7, 80 mg/kg IP, days 1, 5, and 9.
The mark [14] stands for this setting: Table 7, 80 mg/kg IP, days 1, 5, and 9, * p < 0.01.

T1 sequence (P00533 25-1210): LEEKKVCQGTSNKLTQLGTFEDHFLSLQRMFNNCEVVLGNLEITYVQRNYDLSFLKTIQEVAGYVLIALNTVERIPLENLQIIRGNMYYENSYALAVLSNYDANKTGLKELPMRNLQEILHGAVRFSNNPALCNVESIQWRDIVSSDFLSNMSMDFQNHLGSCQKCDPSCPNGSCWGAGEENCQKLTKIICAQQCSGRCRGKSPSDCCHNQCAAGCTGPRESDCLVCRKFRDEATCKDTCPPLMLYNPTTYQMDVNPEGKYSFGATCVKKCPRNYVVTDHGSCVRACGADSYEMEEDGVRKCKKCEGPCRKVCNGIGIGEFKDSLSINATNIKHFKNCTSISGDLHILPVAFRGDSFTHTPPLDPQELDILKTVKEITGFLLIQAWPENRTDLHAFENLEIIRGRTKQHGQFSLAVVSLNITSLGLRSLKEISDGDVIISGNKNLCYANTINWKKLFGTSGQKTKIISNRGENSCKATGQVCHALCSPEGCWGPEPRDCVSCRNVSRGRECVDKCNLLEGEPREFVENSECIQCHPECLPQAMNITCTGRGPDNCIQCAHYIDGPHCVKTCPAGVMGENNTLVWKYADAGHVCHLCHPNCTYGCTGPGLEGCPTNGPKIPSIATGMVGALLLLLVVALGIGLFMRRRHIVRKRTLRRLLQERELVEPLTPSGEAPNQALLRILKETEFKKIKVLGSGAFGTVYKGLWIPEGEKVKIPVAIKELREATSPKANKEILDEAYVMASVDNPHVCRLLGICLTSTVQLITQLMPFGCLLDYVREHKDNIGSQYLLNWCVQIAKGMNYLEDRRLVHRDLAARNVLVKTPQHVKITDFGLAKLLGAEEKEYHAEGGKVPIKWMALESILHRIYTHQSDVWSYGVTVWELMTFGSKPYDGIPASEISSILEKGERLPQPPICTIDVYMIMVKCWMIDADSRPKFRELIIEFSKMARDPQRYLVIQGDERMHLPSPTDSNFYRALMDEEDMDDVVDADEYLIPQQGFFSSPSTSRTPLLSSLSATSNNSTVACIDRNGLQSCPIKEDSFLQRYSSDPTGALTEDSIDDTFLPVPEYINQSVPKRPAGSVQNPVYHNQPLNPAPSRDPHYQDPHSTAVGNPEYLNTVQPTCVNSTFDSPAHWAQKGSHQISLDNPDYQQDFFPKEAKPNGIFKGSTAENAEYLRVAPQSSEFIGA
T1 sequence (P01133 971-1023 partner limits assumed): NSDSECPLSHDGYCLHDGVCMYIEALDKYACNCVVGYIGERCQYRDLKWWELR

On to `O=C(C#Cc1ccccc1)Nc1ccc2ncnc(Nc3cccc(Br)c3)c2c1` [Example 14, N-[4-[(3-bromophenyl)amino]-6-quinazolinyl]-(3-phenyl-2-propynamide)], for which, in assay [1], half-maximal inhibition (IC50) was put at 1000 nM.
On to `O=C(O)/C=C/C(=O)Nc1ccc2ncnc(Nc3cccc(Br)c3)c2c1` [Example 10, 4-[[4-[(3-Bromophenyl)amino]-6-quinazolinyl]amino]-4-oxo-(E)-2-butenoic acid], for which the IC50 in the assay on Neu-3T3 cells was found to be 15 µM.
`CC=CC=CC(=O)Nc1ccc2ncnc(Nc3cccc(Br)c3)c2c1` [Example 11, N-[4-[(3-Bromophenyl)amino]-6-quinazolinyl]-2,4-hexadienamide]: the IC50 was determined as 56 nM in assay [1]; 800 nM with A431 cells; 4 µM in the assay with SKBR3 cells (setting [3]); 850 nM with NHEK cells; 0.4 µM in the assay with Neu-3T3 cells (48 to 72 hours with compound).
Consider `CC#CC(=O)Nc1ccc2ncnc(Nc3cccc(Br)c3)c2c1` [Example 9, N-[4-[(3-Bromophenyl)amino]-6-quinazolinyl]-2-butynamide], for which, in the assay on SKBR3 cells (SK-BR-3, read-out: IC50, SKBR3), the IC50 worked out at 1.06 µM. Moreover, the IC50 in the assay on NHEK cells was 2 nM. Besides, the “inhibition of tumor growth in vivo (in words)” value in assay [2] (A431 tumors in mice, summary of Tables 4-7) is given as “significantly (p<0.01) inhibited human epidermoid tumor growth in vivo”. Besides, in assay [2] (setting [4]), the “% T/C Day 7” value stood at 47%, the “% T/C Day 16” value came out at 34%, the “% T/C Day 21” value stood at 38% and the “% T/C Day 28” value was 41%. Moreover, in assay [2] (setting [4]), the “RTG Day 7” value was 1.72, the “RTG Day 16” value worked out at 2.69, the “RTG Day 21” value came out at 4.33 and the “RTG Day 28” value is on record as 6.18. The “S/T (No. Survivors/No. Treated on Day +28)” value in assay [2] (setting [4]) is 5/5. Also, in assay [2] (setting [5]), the “% T/C Day 7” value is 20%, the “% T/C Day 16” value amounted to 13%, the “% T/C Day 21” value is given as 11% and the “% T/C Day 28” value came out at 17%. In addition, in assay [2] (setting [5]), the “RTG Day 7” value is 0.75, the “RTG Day 16” value was 1.01, the “RTG Day 21” value stood at 1.25 and the “RTG Day 28” value was found to be 2.53. In addition, the “S/T (No. Survivors/No. Treated on Day +28)” value in assay [2] (setting [5]) is 5/5. Further, in assay [2] (setting [6]), the “% T/C Day 7” value came out at 40%, the “% T/C Day 16” value is 28%, the “% T/C Day 21” value is 27% and the “% T/C Day 28” value is listed as 27%. In addition, in assay [2] (setting [6]), the “RTG Day 7” value is recorded as 1.48, the “RTG Day 16” value turned out to be 2.23, the “RTG Day 21” value worked out at 3.05 and the “RTG Day 28” value stood at 4.04. For the same compound, the “S/T (No. Survivors/No. Treated on Day +28)” value in assay [2] (setting [6]) is 5/5. In addition, in assay [2] (setting [7]), the “% T/C Day 7” value was 18%, the “% T/C Day 16” value is given as 11%, the “% T/C Day 21” value came out at 9% and the “% T/C Day 28” value came to 9%. Also, in assay [2] (setting [7]), the “RTG Day 7” value is given as 0.71, the “RTG Day 16” value is listed as 0.91, the “RTG Day 21” value is 1.07 and the “RTG Day 28” value was 1.36. In addition, the “S/T (No. Survivors/No. Treated on Day +28)” value in assay [2] (setting [7]) is reported as 5/5. Also, in assay [2] (setting [8]), the “% T/C Day 7” value came out at 35%, the “% T/C Day 14” value turned out to be 22%, the “% T/C Day 21” value was 19% and the “% T/C Day 28” value worked out at 22%. In addition, in assay [2] (setting [8]), the “RTG Day 7” value was 1.11, the “RTG Day 14” value came to 1.26, the “RTG Day 21” value was 1.51 and the “RTG Day 28” value was 2.55. The “S/T (No. Survivors/No. Treated on Day +28)” value in assay [2] (setting [8]) is given as 14/15. For the same compound, in assay [2] (setting [9]), the “RTG Day 7” value is recorded as 0.79, the “RTG Day 14” value was 1.39, the “RTG Day 21” value worked out at 2.55 and the “S/T (No. Survivors/No. Treated on Day +21)” value was 10/10. In assay [2] (setting [10]), the “% T/C Day 7” value is recorded as 14%, the “% T/C Day 14” value amounted to 12% and the “% T/C Day 21” value is 16%. Also, in assay [2] (setting [11]), the “RTG Day 7” value is given as 1.25, the “RTG Day 14” value is recorded as 2.50, the “RTG Day 21” value was found to be 3.77 and the “S/T (No. Survivors/No. Treated on Day +21)” value is 10/10. In assay [2] (setting [12]), the “% T/C Day 7” value turned out to be 18%, the “% T/C Day 14” value was 21% and the “% T/C Day 21” value worked out at 24%. For the same compound, in assay [2] (setting [13]), the “RTG Day 7” value is recorded as 0.89, the “RTG Day 14” value came out at 1.50, the “RTG Day 21” value is 2.44 and the “RTG Day 28” value stood at 3.45. The “S/T (No. Survivors/No. Treated on Day +28)” value in assay [2] (setting [13]) is 5/5. In assay [2] (setting [14]), the “% T/C Day 7” value is given as 25%, the “% T/C Day 14” value turned out to be 27%, the “% T/C Day 21” value turned out to be 42% and the “% T/C Day 28” value is recorded as 45%.
As to `CC(C)=CC(=O)Nc1ccc2ncnc(Nc3cccc(Br)c3)c2c1` [Example 6, N-[4-[(3-Bromophenyl)amino]-6-quinazolinyl]-3-methyl-2-butenamide], the IC50 in the assay on SKBR3 cells (setting [3]) and in the assay on Neu-3T3 cells (48 to 72 hours with compound) was over 50 µM in each case.

The values above are taken from patent publication US5760041A, “4-aminoquinazoline EGFR Inhibitors” (American Cyanamid Company, priority 1997, dated 1998).
